In the NIST ThermoML archive (doi:10.1016/j.jct.2016.04.014):

Details: Liquid, Vibrating tube method

CCCCCCCC [octane]
Details	mass density [kg/m3]
288.15 K, 100 kPa	706.5
288.15 K, 1000 kPa	707.2
288.15 K, 5000 kPa	710.3
288.15 K, 10000 kPa	714.1
288.15 K, 15000 kPa	717.7
288.15 K, 20000 kPa	721.2
288.15 K, 25000 kPa	724.5
288.15 K, 30000 kPa	727.7
288.15 K, 35000 kPa	730.8
288.15 K, 40000 kPa	733.7
288.15 K, 45000 kPa	736.5
288.15 K, 50000 kPa	739.2
288.15 K, 55000 kPa	741.7
288.15 K, 60000 kPa	744.1
293.15 K, 100 kPa	702.5
293.15 K, 101 kPa	702.58
293.15 K, 1000 kPa	703.2
293.15 K, 5000 kPa	706.4
293.15 K, 10000 kPa	710.3
293.15 K, 15000 kPa	714
293.15 K, 20000 kPa	717.6
293.15 K, 25000 kPa	721
293.15 K, 30000 kPa	724.3
293.15 K, 35000 kPa	727.5
293.15 K, 40000 kPa	730.5
293.15 K, 45000 kPa	733.3
293.15 K, 50000 kPa	736
293.15 K, 55000 kPa	738.6
293.15 K, 60000 kPa	741
298.15 K, 100 kPa	698.5
298.15 K, 1000 kPa	699.2
298.15 K, 5000 kPa	702.5
298.15 K, 10000 kPa	706.5
298.15 K, 15000 kPa	710.3
298.15 K, 20000 kPa	714
298.15 K, 25000 kPa	717.6
298.15 K, 30000 kPa	720.9
298.15 K, 35000 kPa	724.1
298.15 K, 40000 kPa	727.2
298.15 K, 45000 kPa	730.1
298.15 K, 50000 kPa	732.9
298.15 K, 55000 kPa	735.5
298.15 K, 60000 kPa	738
303.15 K, 100 kPa	694.4
303.15 K, 101 kPa	694.48
303.15 K, 1000 kPa	695.2
303.15 K, 5000 kPa	698.6
303.15 K, 10000 kPa	702.7
303.15 K, 15000 kPa	706.7
303.15 K, 20000 kPa	710.5
303.15 K, 25000 kPa	714.1
303.15 K, 30000 kPa	717.5
303.15 K, 35000 kPa	720.9
303.15 K, 40000 kPa	724
303.15 K, 45000 kPa	727
303.15 K, 50000 kPa	729.8
303.15 K, 55000 kPa	732.5
303.15 K, 60000 kPa	735
308.15 K, 100 kPa	690.4
308.15 K, 1000 kPa	691.2
308.15 K, 5000 kPa	694.7
308.15 K, 10000 kPa	698.9
308.15 K, 15000 kPa	703
308.15 K, 20000 kPa	706.9
308.15 K, 25000 kPa	710.6
308.15 K, 30000 kPa	714.2
308.15 K, 35000 kPa	717.5
308.15 K, 40000 kPa	720.8
308.15 K, 45000 kPa	723.8
308.15 K, 50000 kPa	726.7
308.15 K, 55000 kPa	729.4
308.15 K, 60000 kPa	731.9
313.15 K, 100 kPa	686.3
313.15 K, 101 kPa	686.32
313.15 K, 1000 kPa	687.1
313.15 K, 5000 kPa	690.8
313.15 K, 10000 kPa	695.1
313.15 K, 15000 kPa	699.3
313.15 K, 20000 kPa	703.3
313.15 K, 25000 kPa	707.2
313.15 K, 30000 kPa	710.8
313.15 K, 35000 kPa	714.3
313.15 K, 40000 kPa	717.6
313.15 K, 45000 kPa	720.7
313.15 K, 50000 kPa	723.6
313.15 K, 55000 kPa	726.3
313.15 K, 60000 kPa	728.9
318.15 K, 100 kPa	682.2
318.15 K, 1000 kPa	683
318.15 K, 5000 kPa	686.8
318.15 K, 10000 kPa	691.3
318.15 K, 15000 kPa	695.6
318.15 K, 20000 kPa	699.7
318.15 K, 25000 kPa	703.6
318.15 K, 30000 kPa	707.4
318.15 K, 35000 kPa	711
318.15 K, 40000 kPa	714.3
318.15 K, 45000 kPa	717.5
318.15 K, 50000 kPa	720.5
318.15 K, 55000 kPa	723.3
318.15 K, 60000 kPa	725.9
323.15 K, 100 kPa	678
323.15 K, 101 kPa	678.09
323.15 K, 1000 kPa	678.9
323.15 K, 5000 kPa	682.8
323.15 K, 10000 kPa	687.4
323.15 K, 15000 kPa	691.9
323.15 K, 20000 kPa	696.1
323.15 K, 25000 kPa	700.2
323.15 K, 30000 kPa	704
323.15 K, 35000 kPa	707.7
323.15 K, 40000 kPa	711.1
323.15 K, 45000 kPa	714.4
323.15 K, 50000 kPa	717.4
323.15 K, 55000 kPa	720.3
323.15 K, 60000 kPa	722.9
328.15 K, 100 kPa	673.8
328.15 K, 1000 kPa	674.7
328.15 K, 5000 kPa	678.7
328.15 K, 10000 kPa	683.5
328.15 K, 15000 kPa	688.1
328.15 K, 20000 kPa	692.5
328.15 K, 25000 kPa	696.7
328.15 K, 30000 kPa	700.7
328.15 K, 35000 kPa	704.4
328.15 K, 40000 kPa	707.9
328.15 K, 45000 kPa	711.3
328.15 K, 50000 kPa	714.4
328.15 K, 55000 kPa	717.3
328.15 K, 60000 kPa	719.9
333.15 K, 100 kPa	669.7
333.15 K, 1000 kPa	670.6
333.15 K, 5000 kPa	674.8
333.15 K, 10000 kPa	679.7
333.15 K, 15000 kPa	684.5
333.15 K, 20000 kPa	689
333.15 K, 25000 kPa	693.2
333.15 K, 30000 kPa	697.3
333.15 K, 35000 kPa	701.1
333.15 K, 40000 kPa	704.7
333.15 K, 45000 kPa	708.1
333.15 K, 50000 kPa	711.3
333.15 K, 55000 kPa	714.2
333.15 K, 60000 kPa	716.9
343.15 K, 100 kPa	661.2
343.15 K, 1000 kPa	662.2
343.15 K, 5000 kPa	666.6
343.15 K, 10000 kPa	671.9
343.15 K, 15000 kPa	677
343.15 K, 20000 kPa	681.8
343.15 K, 25000 kPa	686.3
343.15 K, 30000 kPa	690.6
343.15 K, 35000 kPa	694.6
343.15 K, 40000 kPa	698.4
343.15 K, 45000 kPa	701.9
343.15 K, 50000 kPa	705.2
343.15 K, 55000 kPa	708.2
343.15 K, 60000 kPa	711
353.15 K, 100 kPa	652.6
353.15 K, 1000 kPa	653.7
353.15 K, 5000 kPa	658.4
353.15 K, 10000 kPa	664.1
353.15 K, 15000 kPa	669.4
353.15 K, 20000 kPa	674.5
353.15 K, 25000 kPa	679.3
353.15 K, 30000 kPa	683.9
353.15 K, 35000 kPa	688.1
353.15 K, 40000 kPa	692.1
353.15 K, 45000 kPa	695.7
353.15 K, 50000 kPa	699.1
353.15 K, 55000 kPa	702.3
353.15 K, 60000 kPa	705.1
363.15 K, 100 kPa	643.8
363.15 K, 1000 kPa	645
363.15 K, 5000 kPa	650.1
363.15 K, 10000 kPa	656.1
363.15 K, 15000 kPa	661.9
363.15 K, 20000 kPa	667.3
363.15 K, 25000 kPa	672.4
363.15 K, 30000 kPa	677.2
363.15 K, 35000 kPa	681.6
363.15 K, 40000 kPa	685.8
363.15 K, 45000 kPa	689.6
363.15 K, 50000 kPa	693.1
363.15 K, 55000 kPa	696.3
363.15 K, 60000 kPa	699.2
373.15 K, 100 kPa	634.7
373.15 K, 1000 kPa	636.3
373.15 K, 5000 kPa	641.8
373.15 K, 10000 kPa	648.2
373.15 K, 15000 kPa	654.4
373.15 K, 20000 kPa	660.1
373.15 K, 25000 kPa	665.5
373.15 K, 30000 kPa	670.6
373.15 K, 35000 kPa	675.3
373.15 K, 40000 kPa	679.6
373.15 K, 45000 kPa	683.6
373.15 K, 50000 kPa	687.3
373.15 K, 55000 kPa	690.5
373.15 K, 60000 kPa	693.5
393.15 K, 100 kPa	616.3
393.15 K, 1000 kPa	618.1
393.15 K, 5000 kPa	624.3
393.15 K, 10000 kPa	631.8
393.15 K, 15000 kPa	638.8
393.15 K, 20000 kPa	645.3
393.15 K, 25000 kPa	651.5
393.15 K, 30000 kPa	657.1
393.15 K, 35000 kPa	662.3
393.15 K, 40000 kPa	667.1
393.15 K, 45000 kPa	671.4
393.15 K, 50000 kPa	675.3
393.15 K, 55000 kPa	678.8
393.15 K, 60000 kPa	681.8
413.15 K, 1000 kPa	599.3
413.15 K, 5000 kPa	606.6
413.15 K, 10000 kPa	615.1
413.15 K, 15000 kPa	623.1
413.15 K, 20000 kPa	630.6
413.15 K, 25000 kPa	637.4
413.15 K, 30000 kPa	643.8
413.15 K, 35000 kPa	649.6
413.15 K, 40000 kPa	654.8
413.15 K, 45000 kPa	659.5
413.15 K, 50000 kPa	663.6
413.15 K, 55000 kPa	667.2
413.15 K, 60000 kPa	670.2
